{"source": "paper PMC7396997", "about": "“Discovery of 4-Anilinoquinolinylchalcone Derivatives as Potential NRF2 Activators” (Molecules, 2020)", "key": {"[1]": {"system": "HaCaT/ARE cells", "assay": "Cell viability (resazurin) in the reporter screen", "method": "Immortalized human keratinocytes HaCaT were cultured in the Dulbecco’s modified Eagle’s medium (DMEM; Gibco BRL, Grand Island, NY, USA) with 10% heat-inactivated fetal bovine serum (HyClone, Logan, UT, USA), penicillin (100 U/mL), and streptomycin (100 μg/mL) in a humidified incubator with 5% CO2. HaCaT/ARE stable cells were grown in DMEM supplemented with 100 μg/mL of hygromycin.\nHaCaT/ARE stable cells were seeded (1 × 10^4 cells/well) in a 96 well plate, then were treated with indicated concentrations of compounds for 18 h. At the assay time point, resazurin (Cayman Chemical, Ann Arbor, MI, USA) was added to a final concentration of 0.1 mg/mL and further incubated for 4 h at 37 °C. Fluorescence of the reduced resazurin (ex/em: 530 nm/590 nm) was measured from the culture supernatant by using a Synergy HT Multi-Mode Reader (BioTek, Winooski, VT, USA) to determine cell viability. The cells were then harvested for luciferase activity measurements according to the manufacturer’s protocol (Promega Corporation, Madison, WI, USA). Relative luciferase activity was calculated by normalizing luciferase activity to cell viability, and DMSO solvent control was used as 100% activity."}, "[2]": {"system": "NRF2", "assay": "ARE-driven luciferase reporter assay (NRF2 activity) in HaCaT/ARE stable cells", "assay_type": "cell-based, human", "excerpt": "In this study, we used a stable ARE-driven reporter system to screen the potential NRF2 activators."}, "[3]": {"system": "NRF2 target genes (HO1, G6PD, GCLC)", "assay": "qRT-PCR of NRF2 target genes in HaCaT cells", "assay_type": "cell-based, human", "conditions": "18 h, real-time PCR", "protocol": "(§1) To further evaluate the effect of compound 13b on NRF2 activation, the mRNA level of NRF2 target genes were determined by real-time PCR.\n(§2) RNA was prepared by using the TRIzol Reagent (Thermo Scientific, Madison, WI, USA) and was reverse transcribed into cDNA using a TOOLs Easy Fast RT Kit (TOOLs Biotechnology, New Taipei City, Taiwan). PCR was performed on an ABI StepOne Plus System (Applied Biosystems, Foster City, CA, USA) using the KAPA SYBR® FAST qPCR Master Mix (2X) Kit (Sigma-Aldrich, St. Louis, MO, USA). The mRNA level was normalized using the glyceraldehyde 3-phosphate dehydrogenase (GAPDH) mRNA level as the standard. The following primers were used: NRF2 forward: 5′-[…] and reverse: 5′-[…]; HO1 forward: 5′-GCCAGCAACAAAGTGCAAG and reverse: 5′-[…]; NQO1 forward: 5′-[…] and reverse: 5′-[…]; GCLC forward: 5′-[…] and reverse: 5′-[…]; G6PD forward: 5′-CAACATCGCCTGCGTTA and reverse: 5′-CTTGACCTTCTCATCACGG; and GAPDH forward: 5′-[…] and reverse: 5′-[…].\nFigure 4 Compound 13b increased the expression of NRF2 target genes in the HaCaT cell. HaCaT cells were treated with indicated concentrations of 13b for 18 h. Total RNA was isolated and submitted to reverse transcription and real-time PCR for the detection of the NRF2 target genes including HO1 (A), GLCL (B), G6PD (C), and NQO1 (D). Data are expressed as normalized mRNA level and presented as mean ± SD from three independent experiments. The asterisk (*) indicates a significant difference between 13b treated groups and control group (* p< 0.05, *** p< 0.001, one-way ANOVA)."}, "[4]": {"system": "NRF2 mRNA", "assay": "qRT-PCR of NRF2 mRNA in HaCaT cells", "assay_type": "cell-based, human", "conditions": "18 h, real-time PCR", "protocol": "as §1, §2\n(§3) Figure 5 The compound 13b increased the NRF2 expression at the protein level in the HaCaT cell. (A) HaCaT cells were treated with indicated concentrations of compound 13b for 8 h. Protein expression of NRF2 was determined by Western blot. (B) HaCaT cells were treated with indicated concentrations of 13b for 18 h. Total RNA was isolated and submitted to reverse transcription and real-time PCR for the detection of the NRF2 mRNA level."}, "[5]": {"system": "NRF2", "assay": "Western blot of NRF2 protein in HaCaT cells", "assay_type": "cell-based, human", "conditions": "8 h", "protocol": "as §1\nCells were washed with PBS and harvested with RIPA lysis buffer (50 mM Tris (pH 7.5), 150 mM NaCl, 1% Tx-100) supplemented with protease and phosphatase inhibitors (1 mM PMSF, 10 μg/mL leupeptin, 50 μg/mL TLCK, 50 μg/mL TPCK, 1 μg/mL aprotinin, 1 mM NaF, 5 mM NaPPi, and 10 mM Na3VO4). The cell lysates were cleared via 10 min spins at 13,000 rpm, 4 °C. Protein concentrations were determined by a Bio-Rad Protein Assay (Bio-Rad, Hercules, CA, USA). Samples corresponded to 20 μg of protein were used for Western blot according to our previous publication. The following antibodies were used: anti-NRF2 (GeneTex, Irvine, CA, USA) and anti-GAPDH (Abcam, Cambridge, MA, USA).\nas §3"}, "[6]": {"system": "HaCaT cells", "assay": "Cytotoxicity, 72 h resazurin cell viability assay", "assay_type": "cell-based, human", "conditions": "HaCaT cells, 72 h; read-out: CC50", "protocol": "Cells were seeded in a 96-well plate contained 100 μL culture medium in triplicate and treated with several compounds for 72 h. At the assay time point, resazurin (Cayman Chemical) was added and further incubated for 4 h at 37 °C. Fluorescence of the reduced resazurin was measured as described previously.\nFigure 3 The cytotoxicity of 12b, 13b, and 14b in HaCaT cells. HaCaT cells were treated with indicated concentrations of these three compounds for 72 h. Cell viability was determined by a resazurin assay as described in the Materials and Methods section. Data presented as mean ± SD from three independent experiments."}}, "note": "Values joined by “and” are separate entries in the source; they are usually repeats but may differ in a detail not shown here. Equal values may be shown once."}
{"substance": "(E)-3-{4-[(4-acetylphenyl)amino]quinolin-2-yl}-1-(4-fluorophenyl)prop-2-en-1-one [13b]", "values": [{"measurement": "survival rate", "setting": "[1]; 10 µM", "value": 96, "unit": "%"}, {"measurement": "Cell Viability", "setting": "[1]; 10 μM, in % (unit assumed)", "value": "95.7 ± 1.8"}, {"measurement": "% of Relative NRF2 Activity in HaCaT Cell", "setting": "[2]; 10 μM, 24 h (b12; method b59 says 18 h), luciferase normalised to cell viability, DMSO control = 100%", "value": "2205% and 2205.2 ± 144.9%"}, {"measurement": "EC50", "setting": "[2]; HaCaT/ARE cells, 18 h, dose-response, read-out: EC50 of NRF2 promoter activity", "value": 1.95, "unit": "µM"}, {"measurement": "G6PD mRNA expression", "setting": "[3]", "value": "significantly increased"}, {"measurement": "GCLC mRNA expression", "setting": "[3]", "value": "significantly increased"}, {"measurement": "HO1 mRNA expression", "setting": "[3]", "value": "significantly increased"}, {"measurement": "mRNA of NRF2", "setting": "[4]", "value": "without altering"}, {"measurement": "expression of NRF2 protein", "setting": "[5]", "value": "effectively enhance"}, {"measurement": "CC50", "setting": "[6]", "value": "> 100", "unit": "µM"}]}
